Results as given in publication PMC12365674, “Diverse metabolites with anti-psoriasis potential from different fermentations of the fungicolous fungus Xylarialongipes HFG1018” (IMA Fungus, 2025).
“Also recorded” adds a separate entry of the source. Where two headings read alike, the source gives them in different places.

How the values were obtained:
[1] = test system: ConA-induced T lymphocytes; experiment: Anti-proliferative activity against ConA-induced T lymphocytes (CCK-8); assay type: cell-based; settings: Mus musculus, T-lymphocyte; for IC50: induced proliferation of T lymphocytes (ConA), CCK-8, read-out: T cells IC50; for inhibition at 20 µM: c = 20 μM
Procedure: (§1) As previously described, the immunosuppressive activity, lymphocyte viability, and antiproliferative activity against HaCaT cells were evaluated using the CCK-8 method ([Zhao et al. 2023], [2024]).
(§2) In the immunosuppressive and lymphocyte viability, the primary tested concentration of all compounds was 20.0 μM, and dexamethasone (Dex) (c = 2.0 μM) was used as a positive control. In the antiproliferative activity against HaCaT cells, the primary tested concentration of all compounds was 40 μM, and the positive control was methotrexate (MTX) (c = 40.0 μM). When the inhibition rates are greater than 50%, the IC50 values of active compounds will be further tested and calculated. All experiments were performed in triplicate.

[2] = Lymphocyte viability (CCK-8); assay type: cell-based, mouse; settings: mouse, lymphocytes; lymphocyte viability; CCK-8
Procedure: as §1, §2

[3] = test system: LPS-induced B lymphocytes; experiment: Anti-proliferative activity against LPS-induced B lymphocytes (CCK-8); assay type: cell-based, mouse; settings: Mus musculus, Lymphocyte; for IC50: induced proliferation of B lymphocytes (LPS), CCK-8, read-out: B cells IC50; for inhibition at 20 µM: c = 20 μM
Procedure: as §1, §2

[4] = test system: HaCaT cells; experiment: Antiproliferative activity against HaCaT cells (CCK-8); assay type: cell-based; settings: read-out: IC50 against the proliferation of HaCaT cells
Procedure: as §1, §2

[5] = test system: LPS-induced B lymphocytes; experiment: Anti-proliferative activity against LPS-induced B lymphocytes (CCK-8); assay type: cell-based; settings: Mus musculus, Lymphocyte, c = 40 μM, read-out: Inhibition rate (%) B
[6] = test system: lymphocytes; experiment: Lymphocyte viability (CCK-8); assay type: cell-based, mouse
Procedure: as §1, §2

[7] = test system: ConA-induced T lymphocytes; experiment: Anti-proliferative activity against ConA-induced T lymphocytes (CCK-8); assay type: cell-based; settings: Mus musculus, T-lymphocyte, c = 40 μM, read-out: Inhibition rate (%) T
[8] = test system: lymphocytes; experiment: Lymphocyte viability (CCK-8); assay type: cell-based, mouse; settings: c = 40 μM
[9] = test system: HaCaT cells; experiment: EdU proliferation assay, HaCaT cells; assay type: cell-based; settings: c = 20 μM; compared to the control group
Procedure: (§3) EdU fluorescence labeling for cell proliferation of induced T/B lymphocytes (2 × 10^5 cells/well) and HaCaT cells (1 × 10^4 cells/well) of active compounds 10, 19, 23, 32, 38, and 41 (final concentration 10 or 20 μM) was performed as previously reported ([Biram and Shulman 2020]; [Zhao et al. 2024]). EdU (HF488) (the Click-iT™ EdU Flow Cytometry Assay Kit, APExBIO, USA) was added 24 h (final concentration 50 μM, T and B cells) and 4 h (final concentration 10 μM, HaCaT cells) before harvesting the cells. All procedures were performed according to the manufacturer’s instructions for the click reaction. EdU-positive cells and proliferating phase cells were analyzed with a fluorescence microscope.

[10] = test system: NF-κB p65 phosphorylation; experiment: Immunofluorescence of p-p65/p65 in HaCaT cells; assay type: cell-based; settings: 31.0 μM, 36 h, P < 0.0001 vs. Con
Procedure: The immunofluorescence protocol was performed using the reported method ([Zhao et al. 2024]). HaCaT cells (2.0 × 10^5 cells/well) were plated onto 6-well plates with glass coverslips and adhered overnight (12 h) before compound addition. After treatment with active compounds 10 (final concentration 31 μM) and 32 (final concentration 27 μM) for 36 h, the supernatant was removed, and the cells were washed twice with PBS, fixed with 4% paraformaldehyde for 15 min, and then washed with PBS three times. After blocking, incubated with NF-κB p65 (p65)/phosphorylated NF-κB p65 (p-p65) antibodies and secondary antibodies (Servicebio, China). Then, cells were counterstained with 4,6-[…]-2-phenylindole (DAPI) for 5 min. After the PBS washing, fluorescent seal liquid was added, and the plate was monitored under an imaging system (Pannoramic MIDI, 3Dhistech, Hungary). The nucleus is blue, and positive cells are green (p-p65) or red (p65). The immunofluorescence areas for each indicator were analyzed in ImageJ.

[11] = test system: IL-17A; experiment: Cytokine analysis by ELISA of induced T cells: IL-17A; assay type: cell-based, mouse; settings: 40 μM; ConA-induced T cells, 48 h; P < 0.05 vs. model
Procedure: (§4) The mononuclear cell suspensions (2 × 10^5 cells/well) were cultured with ConA (5 μg/mL) in 96-well plates, and indicated concentrations of compounds 2, 15, and 32 were added simultaneously. After a 48-hour culture period, cytokines in the supernatants were quantified using mouse IFN-γ, IL-2, and IL-17A ELISA kits (Mabtech, Sweden), following the manufacturer’s protocol ([Jing et al. 2021]; [Zhao et al. 2024]).

[12] = test system: induced T cells (Con A 5 μg/mL); experiment: EdU proliferation assay, induced T cells; assay type: cell-based, mouse; settings: c = 20 μM; relative to the model group
Procedure: as §3

[13] = test system: induced B cells (LPS 15 μg/mL); experiment: EdU proliferation assay, induced B cells; assay type: cell-based, mouse; settings: c = 20 μM; relative to the model group
Procedure: as §3

[14] = test system: IFN-γ; experiment: Cytokine analysis by ELISA of induced T cells: IFN-γ; assay type: cell-based, mouse; settings: ConA-induced T cells, 48 h; all sample groups; P < 0.0001 vs. model
Procedure: as §4

[15] = ConA-induced T lymphocytes, read-out: Inhibition rate (%) T
[16] = LPS-induced B lymphocytes, read-out: Inhibition rate (%) B

CCc1ccc2occ(COC)c(=O)c2c1 [Compound 11, 6-ethyl-3-(methoxymethyl)-4H-chromen-4-one]
IC50 [1]: > 20 µM | CC50 [2]: > 20 µM | IC50 [3]: 20 ± 1.5 µM

C[C@@H]1Cc2c(C(=O)O)ccc(O)c2C(=O)O1 [Compound 30, (R)-5-carboxymellein]
IC50 ([4]; Homo sapiens, HaCaT): 31.2 ± 4.1 µM

C[C@]1(CCO[C@H]2O[C@H](CO)[C@@H](O)[C@H](O)[C@H]2O)CC[C@H]2C(=CC[C@@H]3[C@]2(C)CCC[C@]3(C)C(=O)O)C1 [Compound 17, 16-α-D-glucopyranosyloxyisopimar-7-en-19-oic acid]
inhibition at 40 µM [5]: 20.7 ± 6.9% | inhibition at 20 µM [1, 15]: 10.1 ± 4.4% | Cell validity (%) ([6]; c = 20 μM): 94.0 ± 5.6% | inhibition at 40 µM [7]: 16.3 ± 4.3% | Cell validity (%) [8]: 100.0 ± 8.5% | inhibition at 20 µM [3, 16]: 11.5 ± 3.1%

COc1ccc2oc(C)cc(=O)c2c1O [Compound 19, 5-hydroxy-6-methoxy-2-methyl-4H-1-benzopyran-4-one]
proliferation rates of HaCaT cells measured by EdU [9]: significantly reduced | IC50 ([4]; Homo sapiens, HaCaT): 29.7 ± 3.3 µM

CCCCCC=C(C(=O)O)C(C)C(=O)O (stereo not drawn) [Compound 40, 2-hexylidene-3-methylsuccinic acid]
IC50 ([4]; Homo sapiens, HaCaT): 32.9 ± 3.4 µM

CCC1=Cc2c(occ(COC)c2=O)CC1 [Compound 10, 6-ethyl-3-(methoxymethyl)-7,8-dihydro-4H-chromen-4-one]
NF-κB activation (ratio p-p65/p65) [10]: significantly attenuated NF-κB activation | proliferation rates of HaCaT cells measured by EdU [9]: significantly reduced | IC50 ([4]; Homo sapiens, HaCaT): 30.9 ± 2.7 µM | IC50 [1]: > 20 µM | CC50 [2]: > 20 µM | IC50 [3]: 8 ± 0.7 µM

C[C@]1(CCO[C@H]2O[C@H](CO)[C@@H](O)[C@H](O)[C@@H]2O)CCC2=C(CC[C@H]3[C@@](C)(C(=O)O)CCC[C@]23C)C1 [Compound 2, 16-α-D-Mannopyranosyloxyisopimar-8(9)-en-19-oic acid]
inhibition at 40 µM [5]: 30.6 ± 6.2% | IL-17A levels [11]: markedly lowered | inhibition at 20 µM [1, 15]: 23.8 ± 0.9% | Cell validity (%) ([6]; c = 20 μM): 100.0 ± 2.4% | inhibition at 40 µM [7]: 32.8 ± 6.8% | proliferation of induced T cells measured by EdU [12]: significantly suppressed the proliferation | Cell validity (%) [8]: 89.8 ± 7.9% | proliferation of induced B cells measured by EdU [13]: significantly suppressed the proliferation | inhibition at 20 µM [3, 16]: 24.9 ± 8.6% | IFN-γ secretion [14]: significant reduction; also recorded: significantly reduced

CN(Cc1cnc2nc(N)nc(N)c2n1)c1ccc(C(=O)N[C@@H](CCC(=O)O)C(=O)O)cc1 [MTX, methotrexate, reference compound]
IC50 ([4]; Homo sapiens, HaCaT): 26.4 ± 1.4 µM

CC(C)CC1NC(=O)C2CCCN2C1=O [Compound 37, cyclo-((S)-Pro-(R)-Leu))]
IC50 ([4]; Homo sapiens, HaCaT): 32 ± 2.2 µM

C[C@]1(CCO[C@H]2O[C@H](CO)[C@@H](O)[C@H](O)[C@@H]2O)CC[C@H]2C(=CC[C@@H]3[C@]2(C)CCC[C@]3(C)C(=O)O)C1 [Compound 16, 16-α-D-mannopyranosyloxyisopimar-7-en-19-oic acid]
inhibition at 40 µM [5]: 20.5 ± 10.6% | inhibition at 20 µM [1, 15]: 13.1 ± 2.7% | Cell validity (%) ([6]; c = 20 μM): 101.8 ± 6.9% | inhibition at 40 µM [7]: 20.7 ± 4.3% | Cell validity (%) [8]: 96.2 ± 1.1% | inhibition at 20 µM [3, 16]: 19.3 ± 4.6%

COc1cccc2c1C(=O)O[C@@H](C)C2 [Compound 22, (S)-8-methoxy-3-methylisochroman-1-one]
IC50 ([4]; Homo sapiens, HaCaT): 32.3 ± 1.5 µM

COC(=O)c1ccc(O)c2c1C[C@@H](C)OC2=O [Compound 25, (R)-(−)-5-methoxycarbonylmellein]
IC50 ([4]; Homo sapiens, HaCaT): 35.1 ± 1.9 µM

C[C@@H]1C[C@H]2[C@@H]3CCC4=CC(=O)C=C[C@]4(C)[C@@]3(F)[C@@H](O)C[C@]2(C)[C@@]1(O)C(=O)CO [Dex, dexamethasone, reference compound]
inhibition at 2 µM ([1]; c = 2 μM, ConA-induced T lymphocytes, read-out: Inhibition rate (%) T): 45.2 ± 4.9% | IC50 [1]: 1.9 ± 0.1 µM | Cell validity (%) ([6]; c = 2 μM): 36.9 ± 2.2% | CC50 [2]: 0.2 ± 0.04 µM | inhibition at 2 µM ([3]; c = 2 μM, LPS-induced B lymphocytes, read-out: Inhibition rate (%) B): 68.6 ± 1.5% | IC50 [3]: 1 ± 0.05 µM

CC(C)C(C)C(OC1OC(CO)C(O)C(O)C1O)C(O)C(C)C1CCC2=C3C=CC4=CC(=O)CCC4(C)C3CCC21C [Compound 41, 22,23-dihydroxy-ergosta-4,6,8(14)-trien-3-one-23-β-D-glucopyranoside]
proliferation rates of HaCaT cells measured by EdU [9]: significantly reduced | IC50 ([4]; Homo sapiens, HaCaT): 27.7 ± 2.5 µM | IC50 [1]: 12.1 ± 1.7 µM | CC50 [2]: > 20 µM | IC50 [3]: 16.7 ± 1.9 µM

C[C@]1(CCO[C@H]2O[C@H](CO)[C@@H](O)[C@H](O)[C@H]2O)CCC2=C(CC[C@H]3[C@@](C)(C(=O)O)CCC[C@]23C)C1 [Compound 3, 16-α-D-Glucopyranosyloxyisopimar-8(9)-en-19-oic acid]
inhibition at 40 µM [5]: 22.6 ± 9.6% | inhibition at 20 µM [1, 15]: 15.7 ± 7.9% | Cell validity (%) ([6]; c = 20 μM): 87.7 ± 7.4% | inhibition at 40 µM [7]: 26.5 ± 3.3% | Cell validity (%) [8]: 89.9 ± 4.4% | inhibition at 20 µM [3, 16]: 11 ± 4.9%

CC(C)[C@@H](C)/C=C/[C@@H](C)[C@H]1CC[C@H]2C3=CC(=O)[C@@]4(O)C[C@@H](O)CC[C@]4(C)[C@@]3(O)CC[C@]12C [Compound 34, 3β,5α,9α-trihydroxy-(22E,24R)-ergosta-7,22-dien-6-one]
IC50 ([4]; Homo sapiens, HaCaT): 32.2 ± 3.4 µM

3-methoxy-2-phenethyl-1H-pyrrole-1-carbaldehyde [Compound 35]
IC50 [4]: 31.5 ± 2.4 µM

CC12CCOC(C1)C1=C(CCC3C(C)(C(=O)O)CCCC13C)C2 (stereo not drawn) [Compound 1, 11α,16-Epoxy-isopimar-8(9)-en-19β-oic acid]
inhibition at 40 µM [5]: 20.4 ± 6.3% | inhibition at 20 µM [1, 15]: 11.4 ± 6.4% | Cell validity (%) ([6]; c = 20 μM): 86.3 ± 2.1% | inhibition at 40 µM [7]: 16.5 ± 1.5% | Cell validity (%) [8]: 90.7 ± 4.0% | inhibition at 20 µM [3, 16]: 18.9 ± 7.5%

c1ccc2c3c([nH]c2c1)CNCC3 [Compound 36, tryptoline]
IC50 [1]: > 20 µM | CC50 [2]: > 20 µM | IC50 [3]: 16.7 ± 1.8 µM

COC(=O)c1c[nH]c2ccccc12 [Compound 28, 1H-indole-3-carboxylic acid methyl ester]
IC50 ([4]; Homo sapiens, HaCaT): 29.1 ± 1.7 µM

CC[C@@]1(O)CCc2occ(COC)c(=O)c2[C@@H]1O [Compound 13, (5S,6R)-6-ethyl-5,6-dihydroxy-3-(methoxymethyl)-5,6,7,8-tetrahydro-4H-chromen-4-one]
IC50 ([4]; Homo sapiens, HaCaT): 31.1 ± 2.6 µM

CC(C)[C@@H](C)CC[C@@H](C)[C@H]1CC[C@H]2C3=C[C@@H](O)[C@@]4(O)C[C@@H](O)CC[C@]4(C)[C@H]3CC[C@]12C [Compound 33, (24S)-ergosta-7-ene-3β,5α,6β-triol]
IC50 ([4]; Homo sapiens, HaCaT): 33.9 ± 2.8 µM

CCC1CCc2occc(=O)c2C1O (stereo not drawn) [Compound 9, 6-ethyl-5-hydroxy-5,6,7,8-tetrahydro-4H-chromen-4-one]
IC50 ([4]; Homo sapiens, HaCaT): 35 ± 3.1 µM

COc1ccc(O)c2c1C(=O)O[C@@H](C)C2 [Compound 24, (S)-5-hydroxy-8-methoxy-3-methylisochroman-1-one]
IC50 ([4]; Homo sapiens, HaCaT): 32.5 ± 2 µM
